From patent US9322034B2, “Compositions and methods for detecting and modulating cell death by a translation regulated gene expression system” (Wayne State University, priority 2007, dated 2016)
Where a SMILES comes first, the peptide text is derived from it. The star is where a group is joined. Cbz = O=C(OCc1ccccc1)*

Columns and labels:
HEK293 cells = experiment: Trypan blue staining of HEK293 cells treated with toxic agents; type: cell-based, human; conditions: 50 micromolar, within 24 hr
[1] = system: HEK293 cell pools expressing the fLUC-TRplp-EYFP, fLUC-TRdm-EYFP, pcuLf-TRplp-EYFP or pcuLf-TRdm-EYFP expression cassettes; experiment: Cytotoxicity assay by Western blot, bicistronic TR cassettes; type: cell-based, human; conditions: toxic doses
[2] = system: HEK293 or HT1080 cells transduced with rAAV TRplp-EYFP / TRdm-EYFP; experiment: TR-EYFP translation after rAAV transduction; type: cell-based, human; conditions: 25 μM, 24 hr
Procedure: This example is to show delivery of the TRplp-EYFP and TRdm-EYFP cassettes to HEK293 and HT1080 cells using rAAV transduction. HEK293 or HT1080 cells are plated on flame sterilized glass slides and grown until 60-70% confluent (1-2 days), washed with L-DMEM (DMEM containing 2% fetal bovine serum), and infected with rAAV for 2 hr. The medium is replaced with DMEM, 10% FBS and the cells are incubated for 24 hours. Infected cells are treated with DMEM, 10% FBS supplemented with toxic levels of MG132 (25 μM) for 24 hr prior to direct microscopic or Western analysis as described above.

[3] = system: HEK293 TRplp-TKsr39 cells; experiment: Pro-drug induced cell death, Trypan blue cell viability assay; type: cell-based, human
Procedure: (§1) In this example, HEK293, HEK CMV-EYFP, and HEK TRplp-TKsr39 cells are treated with various amounts of the pro-drug ganciclovir and tested for cell death after 4 days incubation using the Trypan blue staining assay. Cells are plated into 6-well trays, grown to 70-80% confluence, and treated with DMEM, 10% FBS supplemented with ganciclovir (0, 10 nM, 100 nM, 1 μM, 5 μM or 10 μM) for 4 days. Viable cell counts are performed at 3 days and 4 days post-incubation (FIG. 13).

[4] = Pro-drug induced cell death, Trypan blue cell viability assay, control cells; type: cell-based; conditions: human, HEK293 or HEK CMV-EYFP cells (control cells); any concentration (10 nM to 10 μM), 3 or 4 days; read-out: cells remaining Trypan blue viable
Procedure: as §1

TKsr39 protein = TKsr39 protein (Human herpesvirus 1, UniProt Q9QNF7, A168F/F161L/I160F/L159I/L169M); conditions: TKsr39 versus wildtype TK protein; cited from earlier work
Sequence of TKsr39 protein (Q9QNF7 whole entry A168F/F161L/I160F/L159I/L169M, looked up): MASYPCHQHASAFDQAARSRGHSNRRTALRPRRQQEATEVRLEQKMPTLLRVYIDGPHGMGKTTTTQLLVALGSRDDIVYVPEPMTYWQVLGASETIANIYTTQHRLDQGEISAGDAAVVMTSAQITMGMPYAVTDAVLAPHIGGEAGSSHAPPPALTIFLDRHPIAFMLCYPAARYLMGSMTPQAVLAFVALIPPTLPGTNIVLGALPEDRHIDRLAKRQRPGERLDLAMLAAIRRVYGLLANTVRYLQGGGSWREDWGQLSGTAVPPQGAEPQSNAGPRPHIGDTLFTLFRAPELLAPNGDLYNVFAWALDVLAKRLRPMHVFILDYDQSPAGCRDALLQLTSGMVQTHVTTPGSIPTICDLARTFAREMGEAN

SMILES: CC(C)C[C@@H](C=O)NC(=O)[C@H](CC(C)C)NC(=O)[C@H](CC(C)C)NC(=O)OCc1ccccc1 [MG132] (Cbz-Leu-Leu-Leu-aldehyde)
- cell death in HEK293 cells as determined by Trypan blue staining (HEK293 cells): complete cell death
- EYFP translation in cell pools expressing the bicistronic TR cassettes (Western blot, FIG. 4) [1]: induce EYFP translation
- translation of EYFP in rAAV transduced cells compared to uninfected control cells [2]: exhibit selective translation of the fluorescent EYFP protein

SMILES: Nc1nc(O)c2ncn(COC(CO)CO)c2n1 [ganciclovir]
- cell viability compared to untreated cells ([3]; 10 nM, 3 days): does not exhibit any decrease in cell viability
- cell viability compared to untreated cells ([3]; 100 nM, 3 days): slight decrease
- viability at 10 µM ([3]; Homo sapiens, HEK293, 72 h, 3 days): 86%
- viability at 0.01 µM ([3]; Homo sapiens, HEK293, 96 h, 10 nM, 4 days): 99.7%
- viability at 10 µM ([3]; Homo sapiens, HEK293, 96 h, 4 days): 33.7%
- viability [4]: 98 to 100%
- prodrug binding of TKsr39 protein, higher than the wildtype protein (TKsr39 protein): 83 fold
